Measurements published in ChEMBL document CHEMBL1140748, “Synthesis and biological evaluation of novel 2,4-diaminoquinazoline derivatives as SMN2 promoter activators for the potential treatment of spinal muscular atrophy” (J Med Chem, 2008).

Tests used:
[1] = Activation of SMN2 promoter in mouse NSC34 cells assessed as induction of beta-lactamase activity; format: functional, cell-based
[2] = Activation of SMN2 promoter in mouse NSC34 cells assessed as induction of beta-lactamase activity relative to nonactivated cells; format: functional
Wherever activity is given: test concentration or dose not given here.

| SMILES | EC50 ([1]; Mus musculus, NSC-34) [nM] | Activity [2] | EC50 ([1]; nsc34) [nM] |
| --- | --- | --- | --- |
| Nc1nc(N)c2c(OCC3CCCCO3)cccc2n1 (stereo not drawn) | 480 | 2.1 | – |
| Nc1nc(N)c2c(OCc3ccccc3C(F)(F)F)cccc2n1 | 16 | 1.6 | – |
| COc1ccc(OCc2cccc3nc(N)nc(N)c23)cc1 | 1400 | 2.1 | – |
| Cc1ccc(S(=O)(=O)N2CCC(COc3cccc4nc(N)nc(N)c34)CC2)cc1 | 551 | 1.9 | – |
| CC(Oc1cccc2nc(N)nc(N)c12)c1ccc2c(c1)OCO2 (racemic) | 1130 | – | – |
| Nc1nc(N)c2c(OCc3ccc(F)cc3)cccc2n1 | 53 | 1.8 | – |
| Nc1nc(N)c2c(OCC3CCCCC3)cccc2n1 | 2710 | 1.9 | – |
| Nc1nc(N)c2c(OCC3CCN(S(=O)(=O)c4ccc(F)cc4F)CC3)cccc2n1 | 82 | 2 | – |
| Nc1nc(N)c2c(OCC3CCN(S(=O)(=O)c4ccc5ccccc5c4)CC3)cccc2n1 | 464 | 2 | – |
| Nc1nc(N)c2c(OCc3ccc(C(F)(F)F)cc3)cccc2n1 | 17 | 1.6 | – |
| Cc1ccc(C(=O)N2CCC(COc3cccc4nc(N)nc(N)c34)CC2)cc1 | 133 | 2.6 | – |
| CCCOc1cccc2nc(N)nc(N)c12 | 180 | 2.1 | – |
| Nc1nc(N)c2c(Oc3ccccc3Cl)cccc2n1 | 510 | 1.76 | – |
| Cl.Nc1nc(N)c2c(OCC3CCN(Cc4ccc(F)cc4F)CC3)cccc2n1 | 18 | 1.9 | – |
| Nc1nc(N)c2c(OCC3CCN(Cc4ccc5ccccc5c4)CC3)cccc2n1 | 148 | 1.7 | – |
| CCC(Oc1cccc2nc(N)nc(N)c12)c1ccc(Cl)cc1 (racemic) | 170 | – | – |
| Nc1nc(N)c2c(OCC3CCN(C(=O)c4ccc(F)cc4F)CC3)cccc2n1 | 89 | 2.4 | – |
| Nc1nc(N)c2c(OCc3ccccn3)cccc2n1 | 250 | 1.9 | – |
| Nc1nc(N)c2c(OCC3CCN(S(=O)(=O)c4cccc(Cl)c4)CC3)cccc2n1 | 172 | 1.9 | – |
| COc1cccc(COc2cccc3nc(N)nc(N)c23)c1 | 66 | 1.6 | – |
| COc1ccccc1COc1cccc2nc(N)nc(N)c12 | 65 | 1.6 | – |
| Cc1ccccc1COc1cccc2nc(N)nc(N)c12 | 280 | 1.6 | – |
| Nc1nc(N)c2c(OCc3cccc(C(F)(F)F)c3)cccc2n1 | 23 | 1.5 | – |
| Cl.Nc1nc(N)c2c(Oc3cccc4cnccc34)cccc2n1 | 1030 | 2.04 | – |

| SMILES | EC50 ([1]; Mus musculus, NSC-34) [nM] | Activity [2] | EC50 ([1]; nsc34) [nM] |
| --- | --- | --- | --- |
| CC(Oc1cccc2nc(N)nc(N)c12)c1cccc(F)c1 (racemic; form 2) | 50 | – | – |
| Nc1nc(N)c2c(Oc3ccc4cnccc4c3)cccc2n1 | 1260 | 2.3 | – |
| C[C@H](Oc1cccc2nc(N)nc(N)c12)c1cccc2ccccc12 | 2390 | – | – |
| CC(Oc1cccc2nc(N)nc(N)c12)c1cc(F)cc(F)c1 (racemic) | 35 | – | – |
| Cc1cccc(COc2cccc3nc(N)nc(N)c23)c1 | 120 | 1.7 | – |
| CC(Oc1cccc2nc(N)nc(N)c12)c1cccc(C(F)(F)F)c1 (racemic) | 47 | – | – |
| CC(Oc1cccc2nc(N)nc(N)c12)c1ccc(F)cc1 (racemic) | 18 | – | – |
| C[C@H](Oc1cccc2nc(N)nc(N)c12)c1ccccc1 | 60 | – | – |
| CCCCCOc1cccc2nc(N)nc(N)c12 | 190 | 2.1 | – |
| C[C@@H](Oc1cccc2nc(N)nc(N)c12)c1cccc(Cl)c1 | 32 | – | – |
| CC(Oc1cccc2nc(N)nc(N)c12)c1cccc(F)c1 (racemic; form 1) | – | – | 55 |
| Nc1nc(N)c2c(OCC3CCN(Cc4cccc5ccccc45)CC3)cccc2n1 | 43 | 2 | – |
| Nc1nc(N)c2c(Oc3ccc(Cl)cc3)cccc2n1 | 2060 | 1.84 | – |
| Nc1nc(N)c2c(OCc3cc4ccccc4cn3)cccc2n1 | 220 | 2.3 | – |
| CCCCOc1cccc2nc(N)nc(N)c12 | 140 | 2.2 | – |
| Nc1nc(N)c2c(OCc3ccco3)cccc2n1 | 300 | 1.7 | – |
| CC(C)CCOc1cccc2nc(N)nc(N)c12 | 97 | 2 | – |
| Nc1nc(N)c2c(OCC3CCN(S(=O)(=O)c4cccc5ccccc45)CC3)cccc2n1 | 350 | 1.9 | – |
| Nc1nc(N)c2c(OCc3cc(F)ccc3F)cccc2n1 | 47 | 2 | – |
| Nc1nc(N)c2c(OCc3ccccc3Cl)cccc2n1 | 140 | 2 | – |
| Nc1nc(N)c2c(OCC3CCN(S(=O)(=O)c4ccccc4Cl)CC3)cccc2n1 | 897 | 2.1 | – |
| Nc1nc(N)c2c(OCC3CCCC3)cccc2n1 | 470 | 1.9 | – |
| COc1ccc(COc2cccc3nc(N)nc(N)c23)cc1 | 300 | 1.7 | – |
| Cc1cc(COc2cccc3nc(N)nc(N)c23)no1 | 280 | 2.2 | – |

| SMILES | EC50 ([1]; Mus musculus, NSC-34) [nM] | Activity [2] | EC50 ([1]; nsc34) [nM] |
| --- | --- | --- | --- |
| Nc1nc(N)c2c(OCC3CCN(C(=O)c4ccccc4F)CC3)cccc2n1 | 74 | 2.5 | – |
| Nc1nc(N)c2c(OCc3cccs3)cccc2n1 | 73 | 1.9 | – |
| Cc1cccc(CN2CCC(COc3cccc4nc(N)nc(N)c34)CC2)c1 | 22 | 1.9 | – |
| Nc1nc(N)c2c(COc3ccc(F)cc3)cccc2n1 | 350 | 2.2 | – |
| Nc1nc(N)c2c(OCC3CCN(C(=O)c4ccc(F)c(F)c4)CC3)cccc2n1 | 104 | 2.4 | – |
| Nc1nc(N)c2c(OCC3CCN(Cc4ccccc4Cl)CC3)cccc2n1 | 38 | 2 | – |
| CC(C)(Oc1cccc2nc(N)nc(N)c12)c1cccc(Cl)c1 | 2330 | – | – |
| CC(Oc1cccc2nc(N)nc(N)c12)c1ccccc1C(F)(F)F (racemic) | 1010 | – | – |
| CN1CCCCC1COc1cccc2nc(N)nc(N)c12 (stereo not drawn) | 140 | 1.9 | – |
| Nc1nc(N)c2c(OCc3cccc(F)c3)cccc2n1 | 55 | 1.59 | – |
| Cc1ccc(Oc2cccc3nc(N)nc(N)c23)cc1 | 1210 | 1.6 | – |
| Cc1ccccc1CN1CCC(COc2cccc3nc(N)nc(N)c23)CC1 | 18 | 1.9 | – |
| Cc1ccc(OCc2cccc3nc(N)nc(N)c23)cc1 | 410 | 2.2 | – |
| CC(C)COc1cccc2nc(N)nc(N)c12 | 180 | 1.8 | – |
| Nc1nc(N)c2c(Oc3cccc4ccncc34)cccc2n1 | 2440 | 1.59 | – |
| CCCCCCCCCOc1cccc2nc(N)nc(N)c12 | 550 | 1.7 | – |
| CC(Oc1cccc2nc(N)nc(N)c12)c1ccccc1 (racemic) | 240 | – | – |
| Nc1nc(N)c2c(OCC3CCN(C(=O)c4cccc(F)c4F)CC3)cccc2n1 | 67 | 2.5 | – |
| Nc1nc(N)c2c(COc3ccccc3Cl)cccc2n1 | 1160 | 2.2 | – |
| Nc1nc(N)c2c(OCc3cccnc3)cccc2n1 | 24 | 2.1 | – |
| Nc1nc(N)c2c(OCC3CCN(S(=O)(=O)c4ccc(Cl)cc4)CC3)cccc2n1 | 603 | 2 | – |
| Cc1ccccc1S(=O)(=O)N1CCC(COc2cccc3nc(N)nc(N)c23)CC1 | 545 | 2 | – |
| CC(Oc1cccc2nc(N)nc(N)c12)c1ccc(Cl)c(Cl)c1 (racemic) | 320 | – | – |
| C[C@H](Oc1cccc2nc(N)nc(N)c12)c1ccc2ccccc2c1 | 440 | – | – |

| SMILES | EC50 ([1]; Mus musculus, NSC-34) [nM] | Activity [2] | EC50 ([1]; nsc34) [nM] |
| --- | --- | --- | --- |
| CC(C)(C)COc1cccc2nc(N)nc(N)c12 | 650 | 2.1 | – |
| Nc1nc(N)c2c(OCC3CCN(C(=O)c4cccc5ccccc45)CC3)cccc2n1 | 35 | 2.5 | – |
| Nc1nc(N)c2c(OCC3CCN(S(=O)(=O)c4ccc(F)c(F)c4)CC3)cccc2n1 | 40 | 2.1 | – |
| Nc1nc(N)c2c(OC3(c4cccc(Cl)c4)CCCCC3)cccc2n1 | 1710 | – | – |
| Nc1nc(N)c2c(OCC3CCN(Cc4cccc(F)c4F)CC3)cccc2n1 | 38 | 2.2 | – |
| Nc1nc(N)c2c(OCc3c(F)cccc3F)cccc2n1 | 190 | 1.8 | – |
| CC(C)(C)C(Oc1cccc2nc(N)nc(N)c12)c1ccc(Cl)cc1 (racemic) | 7760 | – | – |
| Cc1cccc(C(=O)N2CCC(COc3cccc4nc(N)nc(N)c34)CC2)c1 | 110 | 2.2 | – |
| Nc1nc(N)c2c(COc3ccccc3I)cccc2n1 | 390 | 1.9 | – |
| CC(Oc1cccc2nc(N)nc(N)c12)c1ccccc1Cl (racemic) | 290 | – | – |
| Nc1nc(N)c2c(Oc3ccc(F)cc3)cccc2n1 | 1320 | 1.7 | – |
| Cc1ccc(CN2CCC(COc3cccc4nc(N)nc(N)c34)CC2)cc1.Cl | 24 | 1.9 | – |
| Cc1cccc(S(=O)(=O)N2CCC(COc3cccc4nc(N)nc(N)c34)CC2)c1 | 221 | 1.8 | – |
| Nc1nc(N)c2c(OCC3CCN(Cc4ccc(F)c(F)c4)CC3)cccc2n1 | 322 | 2 | – |
| Cc1ccc(COc2cccc3nc(N)nc(N)c23)cc1 | 220 | 2.04 | – |
| CC(Oc1cccc2nc(N)nc(N)c12)c1ccc(C(F)(F)F)cc1 (racemic) | 50 | – | – |
| Nc1nc(N)c2c(OCc3ccc(F)c(F)c3)cccc2n1 | 14 | 1.8 | – |
| Nc1nc(N)c2c(COc3ccc(Cl)cc3)cccc2n1 | 190 | 2 | – |
| Cc1ccccc1C(=O)N1CCC(COc2cccc3nc(N)nc(N)c23)CC1 | 160 | 2.5 | – |
| Nc1nc(N)c2c(OCC3CCN(C(=O)c4ccc(Cl)cc4)CC3)cccc2n1 | 81 | 2.4 | – |
| CC(Oc1cccc2nc(N)nc(N)c12)c1ccc(Cl)cc1 (racemic) | 80 | – | – |
| C[C@@H](Oc1cccc2nc(N)nc(N)c12)c1ccccc1 | 220 | – | – |
| Nc1nc(N)c2c(OC3(c4cccc(Cl)c4)CC3)cccc2n1 | 290 | – | – |
